The values below come from patent US20100168084A1, “Therapeutic compounds and related methods of use” (priority 2008, published 2010).

In test [1] the test system is HDAC. The note with it: literature statements; cited from earlier work.
Test [2] addresses T1, sirtuin protein (Homo sapiens, UniProt Q96EB6).
T1 sequence (Q96EB6 2-747 limits assumed): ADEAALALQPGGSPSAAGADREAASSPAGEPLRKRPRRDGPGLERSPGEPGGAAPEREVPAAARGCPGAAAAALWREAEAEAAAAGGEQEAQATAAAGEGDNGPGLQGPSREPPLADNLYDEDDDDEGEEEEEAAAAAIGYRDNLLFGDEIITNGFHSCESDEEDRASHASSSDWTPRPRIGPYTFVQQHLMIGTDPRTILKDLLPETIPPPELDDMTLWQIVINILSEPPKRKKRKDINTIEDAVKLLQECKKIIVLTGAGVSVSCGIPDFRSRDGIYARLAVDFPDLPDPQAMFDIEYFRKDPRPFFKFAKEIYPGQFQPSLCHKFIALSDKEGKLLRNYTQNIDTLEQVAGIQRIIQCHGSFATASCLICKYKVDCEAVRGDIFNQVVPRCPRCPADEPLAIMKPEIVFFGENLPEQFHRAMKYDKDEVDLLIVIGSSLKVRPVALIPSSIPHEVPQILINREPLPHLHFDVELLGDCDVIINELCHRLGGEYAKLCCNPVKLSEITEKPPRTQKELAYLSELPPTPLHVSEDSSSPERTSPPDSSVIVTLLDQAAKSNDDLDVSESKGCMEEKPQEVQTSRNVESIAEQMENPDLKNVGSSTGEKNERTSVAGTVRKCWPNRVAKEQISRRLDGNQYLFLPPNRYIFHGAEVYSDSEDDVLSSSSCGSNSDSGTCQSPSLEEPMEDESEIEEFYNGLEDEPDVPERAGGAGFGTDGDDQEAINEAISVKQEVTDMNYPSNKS
The experiment in a line: MS assay (IC50 MS ASSAY / ED50 MS / FOLD ACTIVATION MS). It counts as biochemical. Also on record: scale not given here.

Test [3] relates to sirtuin protein. The experiment in a line: FP assay (IC50 FP ASSAY / ED50 FP). The conditions noted are these: Table 4. It counts as biochemical.
Test [4] addresses cytochrome oxidase (Complex IV) (Homo sapiens, UniProt P00395). The conditions noted are these: cited from earlier work.
For test [5] the following is noted: topical; cited from earlier work.
[6] abbreviates: MS assay, class symbols, key not given.
Setting [7] is: Table 4, class symbols A′, A, B, C, NA, legend not given.

Where two headings read alike, the source gives them in different places.

Take `O=C(/C=C/c1cccc(C(=O)NO)c1)NO` [CBHA, m-carboxy-cinnamic acid bishydroxamic acid]: the “inhibition of HDAC” value in test [1] is listed as “inhibit HDAC at micromolar concentration or lower”.
As to `O=C1CN(Cc2csc3nc(-c4ccccc4NC(=O)c4cnc5ccccc5n4)cn23)CCN1` [Compound 677], the “ED50 MS ASSAY” value in test [2] was “A′”; in test [2] (Table 4, class symbols) it was “A′”; in test [2] (Table 4, class symbols A′, A, B, D, NA, legend not given), “A′”; in test [2] (class symbols (A′, A, B, D, NA), no legend given) it was “A′”. In addition, the “ED50 FP ASSAY” value in test [3] was “A′”.
Turning to `O=C(Nc1ccccc1-c1nc2cc(CN3CCOCC3)cnc2s1)c1ccc2ccccc2n1` [Compound 724], the “ED50 MS ASSAY” value in test [2], in test [2] (setting [6]), in test [2] (TABLE 4), in test [2] (Table 4) and in test [2] (setting [7]) was “A′” throughout.
As to `Cc1ccc(C(=O)Nc2ccccc2-c2nc3ccc(CN4CCNCC4)nc3s2)cc1C` [Compound 727], the “ED50 MS ASSAY” value in test [2], in test [2] (setting [6]), in test [2] (TABLE 4), in test [2] (Table 4) and in test [2] (setting [7]) was “A′” in each case.
Regarding `O=C(Nc1ccccc1-c1nc2ccc(CN3CCNCC3)nc2s1)c1ccc2ccccc2n1` [Compound 729], the “ED50 MS ASSAY” value in test [2], in test [2] (setting [6]), in test [2] (TABLE 4), in test [2] (Table 4) and in test [2] (setting [7]) was “A′” throughout.
As for `O=C(Nc1ccccc1-c1nc2cc(CN3CCNCC3)cnc2s1)c1cc(-c2ccccc2)no1` [Compound 732], the “ED50 MS ASSAY” value in test [2], in test [2] (setting [6]), in test [2] (TABLE 4), in test [2] (Table 4) and in test [2] (setting [7]) was “A′” throughout.
As to `O=C(Nc1ccccc1-c1cn2c(CN3CCNCC3)csc2n1)c1cccc(-c2cc[nH]n2)c1` [Compound 733], the “ED50 MS ASSAY” value in test [2], in test [2] (setting [6]), in test [2] (TABLE 4), in test [2] (Table 4) and in test [2] (setting [7]) was “A′” in each case.
Turning to `COc1ccc(-c2cc(C(=O)Nc3ccccc3-c3cn4c(CN5CCNCC5)csc4n3)[nH]n2)cc1` [Compound 735], the “ED50 MS ASSAY” value in test [2], in test [2] (setting [6]), in test [2] (TABLE 4), in test [2] (Table 4) and in test [2] (setting [7]) was “A′” throughout.
Regarding `COc1ccc(-c2ccc(C(=O)Nc3ccccc3-c3cn4c(CN5CCNCC5)csc4n3)o2)cc1` [Compound 736], the “ED50 MS ASSAY” value in test [2], in test [2] (setting [6]), in test [2] (TABLE 4), in test [2] (Table 4) and in test [2] (setting [7]) was “A′” throughout.
In the case of `O=C(Nc1ccccc1-c1cn2c(CN3CCNCC3)csc2n1)c1cccc(SC(F)F)c1` [Compound 737], the “ED50 MS ASSAY” value in test [2], in test [2] (setting [6]), in test [2] (TABLE 4), in test [2] (Table 4) and in test [2] (setting [7]) was “A′” each time.
As to `COc1cc(C(=O)Nc2ccccc2-c2cn3c(C)csc3n2)cc(OC)c1OC` [Compound 739], the “ED50 MS ASSAY” value in test [2], in test [2] (setting [6]), in test [2] (TABLE 4), in test [2] (Table 4) and in test [2] (setting [7]) was “A′” in each case.
Consider `Cc1csc2nc(-c3ccccc3NC(=O)c3cccc(N(C)C)c3)cn12` [Compound 740], for which the “ED50 MS ASSAY” value in test [2], in test [2] (setting [6]), in test [2] (TABLE 4), in test [2] (Table 4) and in test [2] (setting [7]) was “A′” each time.
For the molecule `CN1CCN(Cc2csc3nc(-c4ccccc4NC(=O)c4cnc5ccccc5n4)cn23)C(=O)C1` [Compound 741], the “ED50 MS ASSAY” value in test [2], in test [2] (setting [6]), in test [2] (TABLE 4), in test [2] (Table 4) and in test [2] (setting [7]) was “A′” each time.
Consider `O=C(Nc1ccccc1-c1cn2c(CN3CCSCC3)csc2n1)c1cnc2ccccc2n1` [Compound 742], for which the “ED50 MS ASSAY” value in test [2], in test [2] (setting [6]), in test [2] (TABLE 4), in test [2] (Table 4) and in test [2] (setting [7]) was “A′” each time.
On to `O=C(Nc1ccccc1-c1cn2c(Cn3ccnc3)csc2n1)c1cnc2ccccc2n1` [Compound 745], for which the “ED50 MS ASSAY” value in test [2], in test [2] (setting [6]), in test [2] (TABLE 4), in test [2] (Table 4) and in test [2] (setting [7]) was “A′” in each case.
As for `C/C=C1\NC(=O)[C@H]2CSSCC/C=C/[C@H](CC(=O)N[C@H](C(C)C)C(=O)N2)OC(=O)[C@H](C(C)C)NC1=O` [Depsipeptide, depsipeptide], the “inhibition of HDAC” value in test [1] is on record as “inhibit HDAC activity at micromolar concentrations”.
With `[N]=O` [Nitric oxide], the “concentration that inhibits cytochrome oxidase (Complex IV)” value in test [4] is on record as “about 1 micromolar”.
On to `CC(C)(C)NC[C@H](O)COc1nsnc1N1CCOCC1` [timolol], for which, in test [5], the “time for IOP to fall” value is 30 min and the “time of peak effects on IOP” value is 1 to 2 h.
Turning to depudecin, in test [1], the “inhibition of HDAC” value is recorded as “inhibit HDAC at micromolar concentrations”.
On to trichostatin A [TSA], for which the “inhibition of HDAC” value in test [1] is on record as “potent inhibitor of mammalian HDAC”.
